Experimental data from ChEMBL document CHEMBL5335819, “Discovery of an ellipticine derivative as TLR3 inhibitor against influenza A virus and SARS-CoV-2” (Bioorg Med Chem Lett, 2024).
Activity calls are given as the source filed them. The rule behind the calls is not given here.

Key:
[1] = biological target: Toll-like receptor 3 (Homo sapiens) (UniProt O15455); assay: Inhibition of human TLR3 expressed in mouse RAW264.7 cells assessed as inhibition of NO production; assay type: cell-based
Influenza A virus [2] = assay: Antiviral activity against Influenza virus infected in human A549 cells assessed as reduction in virus induced CCL-5 mRNA expression level by qRT-PCR analysis; assay type: functional, organism-based
Influenza A virus [3] = assay: Antiviral activity against Influenza A virus A/Puerto Rico/8/34 (H1N1) infected in dog MDCK cells
[4] = Cytotoxicity against African green monkey Vero E6 cells assessed as reduction in cell viability by CCK-8 assay; assay type: toxicity, cell-based, Vero C1008; conditions: chlorocebus sabaeus
[5] = Cytotoxicity against human A549 cells assessed as reduction in cell viability incubated for 48 hrs by MTT assay; assay type: toxicity, cell-based
Influenza A virus [6] = assay: Antiviral activity against Influenza virus infected in TLR3 human knockdown A549 cells assessed as reduction in PB2 protein level measured after 24 hrs by Western blot analysis; assay type: functional, organism-based
SARS-CoV-2 [7] = assay: Antiviral activity against SARS-CoV-2 infected in African green monkey Vero E6 cells assessed as inhibition of NP protein by indirect immunofluoresence assay; assay type: functional, organism-based; conditions: Severe acute respiratory syndrome coronavirus 2
Influenza A virus [8] = assay: Antiviral activity against Influenza virus infected in human A549 cells assessed as reduction in virus induced IFN- beta mRNA expression level by qRT-PCR analysis; assay type: functional, organism-based
MDCK = assay: Cytotoxicity against MDCK cells assessed as reduction in cell viability incubated for 48 hrs by MTT assay; assay type: toxicity, cell-based, Canis lupus familiaris; conditions: dog
A549 = assay: Reduction in Poly(I:C) induced TLR3 mRNA expression in human A549 cells by qRT-PCR analysis; assay type: functional, cell-based
[9] = Cytotoxicity against human HEK293T cells assessed as reduction in cell viability incubated for 48 hrs by MTT assay; assay type: toxicity, cell-based, HEK-293T
Influenza A virus [10] = assay: Antiviral activity against Influenza virus infected in TLR3 knockdown human A549 cells by plaque assay; assay type: functional, organism-based
Influenza A virus [11] = assay: Antiviral activity against Influenza virus infected in human A549 cells assessed as reduction in virus induced IP-10 mRNA expression level by qRT-PCR analysis; assay type: functional, organism-based
Influenza A virus [12] = assay: Antiviral activity against Influenza A virus A/WSN/33 (H1N1) infected in dog MDCK cells
[13] = Cytotoxicity against human BEAS-2B cells assessed as reduction in cell viability incubated for 48 hrs by MTT assay; assay type: toxicity, cell-based
SARS-CoV-2 [14] = assay: Antiviral activity against SARS-CoV-2 infected in African green monkey Vero E6 cells; assay type: functional, organism-based; conditions: Severe acute respiratory syndrome coronavirus 2, Vero C1008
Influenza A virus [15] = assay: Antiviral activity against Influenza virus infected in TLR3 knockdown human A549 cells assessed as reduction in NP protein level measured after 24 hrs by Western blot analysis; assay type: functional, organism-based

Chain of Toll-like receptor 3 (Homo sapiens) (O15455 whole entry): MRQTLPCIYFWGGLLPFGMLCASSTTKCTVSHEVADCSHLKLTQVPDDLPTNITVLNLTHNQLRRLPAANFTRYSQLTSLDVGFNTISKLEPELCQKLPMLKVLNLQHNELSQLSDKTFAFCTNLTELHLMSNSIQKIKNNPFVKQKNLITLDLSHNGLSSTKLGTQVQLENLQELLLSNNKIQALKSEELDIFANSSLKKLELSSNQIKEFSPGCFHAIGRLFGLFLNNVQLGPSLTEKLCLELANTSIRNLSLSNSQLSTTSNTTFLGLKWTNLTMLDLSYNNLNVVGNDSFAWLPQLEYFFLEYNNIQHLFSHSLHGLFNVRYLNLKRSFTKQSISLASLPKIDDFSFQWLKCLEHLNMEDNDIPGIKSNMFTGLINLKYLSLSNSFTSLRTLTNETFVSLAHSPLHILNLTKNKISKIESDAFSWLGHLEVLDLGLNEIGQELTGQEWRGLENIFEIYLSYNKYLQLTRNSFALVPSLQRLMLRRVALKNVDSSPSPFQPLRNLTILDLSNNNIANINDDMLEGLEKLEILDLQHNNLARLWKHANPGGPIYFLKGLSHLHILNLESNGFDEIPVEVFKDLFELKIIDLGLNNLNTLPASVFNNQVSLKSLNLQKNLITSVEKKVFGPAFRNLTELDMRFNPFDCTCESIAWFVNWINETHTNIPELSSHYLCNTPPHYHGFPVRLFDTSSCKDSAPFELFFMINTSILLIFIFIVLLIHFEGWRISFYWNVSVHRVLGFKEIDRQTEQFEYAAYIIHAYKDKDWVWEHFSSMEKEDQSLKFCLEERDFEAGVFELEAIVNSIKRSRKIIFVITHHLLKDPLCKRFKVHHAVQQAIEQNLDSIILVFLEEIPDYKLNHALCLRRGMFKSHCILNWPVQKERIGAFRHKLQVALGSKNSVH

With `COc1ccc2[nH]c3c(C)c4ccncc4c(C)c3c2c1` the inhibition [1] was “Active”, the Activity (Influenza A virus [2]) was “Active” and the IC50 (Influenza A virus [3]) was 0.14 µM. The CC50 [4] was > 10 µM, the CC50 at 48 h [5] was 5.33 µM and the Activity (Influenza A virus [6]) was “Active”. The Activity (SARS-CoV-2 [7]) was “Dose-Dependent Effect”, the Activity (Influenza A virus [8]) was “Active” and the CC50 (MDCK) was 5.33 µM. The Activity (A549) was “Active”, the CC50 at 48 h [9] was 5.33 µM and the Activity (Influenza A virus [10]) was “inactive”. For the same molecule, the Activity (Influenza A virus [11]) was “Active”, the IC50 (Influenza A virus [12]) was 0.33 µM and the CC50 at 48 h [13] was 5.33 µM. For the same molecule, the IC50 (SARS-CoV-2 [14]) was 0.43 µM and the Activity (Influenza A virus [15]) was “Active”.
